Assay results from publication PMC7507806 (ACS Pharmacology & Translational Science, 2020).
Read-outs that look alike come from different tables or passages of the source. Non-standard residues stand in square brackets, D forms with d. Residues, ends and D or L forms follow the SMILES beside them. *: point of attachment. Nva = CCC[C@H](N)C(=O)O; Cbz = O=C(OCc1ccccc1)*

Legend:
Vero E6 cells = details: for CC50: read-out: Vero E6 cytotoxicity CC50
[1] = tested on: SARS-CoV-2 (USA_WA1/2020); experiment: SARS-CoV-2 cytopathic effect; format: cell-based; details: Vero E6 cells; for EC50: read-out: SARS-CoV-2 CPE EC50
SARS-CoV-2 3CL^pro = SARS-CoV-2 3CL^pro (Severe acute respiratory syndrome coronavirus 2, UniProt P0DTD1); format: biochemical; details: for IC50: read-out: 3CL^pro inhibition IC50
SARS-CoV-2 virus = details: cited from earlier work
[2] = Table 2, compounds with partial fluorescence quenching effect

Row | Compound | Vero E6 cytotoxicity efficacy (Vero E6 cells; no virus, Table 1 compounds) [%] | CC50 (Vero E6 cells; no virus, Table 1 compounds) [µM] | SARS-CoV-2 CPE efficacy ([1]; 72 h, Table 1 compounds) [%] | EC50 ([1]; 72 h, Table 1 compounds) [µM] | 3CL^pro inhibition max resp (SARS-CoV-2 3CL^pro; Table 1 compounds) [%] | Vero E6 cytotoxicity efficacy (Vero E6 cells; Table 2 quenching compounds) [%] | other results
1 | O=C(O)c1ccc(N2C(=O)/C(=C\c3ccc(-c4ccc([N+](=O)[O-])cc4)o3)C=C2c2ccccc2)cc1 [4E1RCat] | 0 | > 20 | 0 | > 20 | 76.33 | – | IC50 (SARS-CoV-2 3CL^pro): 18.3 µM
2 | CC#C[C@@H](CC(=O)O)c1ccc(OCc2cccc(-c3ccc(C(F)(F)F)cc3)c2)cc1 [AMG-837] | – | – | – | – | – | 20.2 | SARS-CoV-2 CPE efficacy ([1]; Table 2 quenching compounds): 106.31%; 3CL^pro inhibition max resp (SARS-CoV-2 3CL^pro; [2]): 65.79%
3 | CC(C)(C)NC(=O)N[C@H](C(=O)N1C[C@H]2[C@@H]([C@H]1C(=O)NC(CC1CCC1)C(=O)C(N)=O)C2(C)C)C(C)(C)C (stereo partly drawn) [Boceprevir] | – | – | – | – | – | – | activity in CPE and viral yield reduction assays (SARS-CoV-2 virus): active in both CPE and viral yield reduction assays; EC50 (SARS-CoV-2 virus; read-out: EC50 against SARS-CoV-2 virus infection in the CPE assay): 1.9 µM
4 | CC1(C)OC2=C(C(=O)c3ccccc3C2=O)[C@H](NCc2ccccc2)[C@@H]1O [CAY-10581] | 0 | > 20 | 0 | > 20 | – | – | –
5 | O=C1C(Cl)=C(NCCN2CCOCC2)C(=O)c2ncccc21 [DA-3003–1] | 112 | 7.74 | 53.77 | 4.47 | – | – | activity in CPE assay [1]: exhibited CPE activity
6 | O=C(O)Cc1cccc(OCCCN(Cc2cccc(C(F)(F)F)c2Cl)CC(c2ccccc2)c2ccccc2)c1 [GSK-3965] | – | – | – | – | – | 82.34 | CC50 (Vero E6 cells; Table 2 quenching compounds): 14.1 µM; SARS-CoV-2 CPE efficacy ([1]; Table 2 quenching compounds): 22.51%; 3CL^pro inhibition max resp (SARS-CoV-2 3CL^pro): 108.24%; IC50 (SARS-CoV-2 3CL^pro): 21.5 µM
7 | O=C1Nc2ccc(I)cc2/C1=C/c1cc(Br)c(O)c(Br)c1 [GW5074] | – | – | – | – | – | 20.1 | CC50 (Vero E6 cells; Table 2 quenching compounds): 11.2 µM; 3CL^pro inhibition max resp (SARS-CoV-2 3CL^pro; [2]): 63.16%
8 | Cc1cc(SCc2sc(-c3ccc(C(F)(F)F)c(F)c3)nc2C)ccc1OCC(=O)O [GW-0742] | 0 | > 20 | 0 | > 20 | 126.23 | – | –
9 | CCC[C@@H](C=O)NC(=O)[C@H](CC(C)C)NC(=O)[C@H](CC(C)C)NC(=O)OCc1ccccc1 [MG-115] (Cbz-Leu-Leu-[Nva]-aldehyde) | 115.48 | 1.13 | – | – | 74.89 | – | –
10 | CCCCCCCc1ccc(CCc2cccc(O)c2C(=O)O)cc1 [MG-149] | – | – | – | – | – | 23.42 | –
11 | COc1ccc2cc(-c3cc(-c4cc(Cl)cc(Cl)c4)nn3[C@@H](C)c3ccc(C(=O)NCCC(=O)O)cc3)ccc2c1 [MK 0893] | 80.04 | – | 23.89 | – | 95.77 | – | –
12 | CC(C)c1ccc2c(c1)c(SC(C)(C)C)c(CC(C)(C)C(=O)O)n2Cc1ccc(Cl)cc1 [MK-886] | – | – | – | – | – | 40.83 | CC50 (Vero E6 cells; Table 2 quenching compounds): 14.1 µM; 3CL^pro inhibition max resp (SARS-CoV-2 3CL^pro; [2]): 109.11%
13 | O=C1C(SCCO)=C(SCCO)C(=O)c2ccccc21 [NSC 95397] | 111.33 | 14.1 | 0 | > 20 | 98.7 | – | –
14 | O=C(Nc1cc(C(F)(F)F)cc(C(F)(F)F)c1)c1cnc(Cl)nc1C(F)(F)F [SP 100030] | 0 | > 20 | 0 | > 20 | – | – | –
15 | Cc1[nH]c(/C=C2\C(=O)Nc3cc(-c4ccccc4)ccc32)c(C)c1CCC(=O)O [SU 16f] | 23.57 | 7.94 | 0 | > 20 | – | – | –
16 | Brc1c(Br)c(Br)c2n[nH]nc2c1Br [TBB] | 80.93 | 8.91 | – | – | 77.96 | – | –
17 | Cc1cc(O[C@@H](CCC(F)(F)F)c2ccc(C(=O)NCCC(=O)O)cc2)cc(C)c1-c1ccc(C(C)(C)C)cc1 [adomeglivant] | – | – | – | – | – | 36.97 | SARS-CoV-2 CPE efficacy ([1]; Table 2 quenching compounds): 49.2%
18 | CCCCCCCCCCCCCCCCC(C(=O)O)C(O)(CC(=O)O)C(=O)O (stereo not drawn) [agaric acid] | 0 | > 20 | 0 | > 20 | 110.16 | – | –
19 | CCCCCCCCCCCCCCCc1cccc(O)c1C(=O)O [anacardic acid] | – | – | – | – | – | 72.92 | SARS-CoV-2 CPE efficacy ([1]; Table 2 quenching compounds): 89.62%; EC50 ([1]; Table 2 quenching compounds): 3.98 µM; 3CL^pro inhibition max resp (SARS-CoV-2 3CL^pro; [2]): 105.9%
20 | CC1(C)CCC2=C(O1)c1ccccc1C(=O)C2=O [beta-lapachone] | 15.06 | – | 0 | – | 60.88 | – | –
21 | CSCC[C@@H](C=O)NC(=O)[C@H](CC(C)C)NC(=O)[C@H](CC(C)C)NC(C)=O [calpain inhibitor II] (Ac-Leu-Leu-Met-aldehyde) | – | – | – | – | – | – | activity in CPE and viral yield reduction assays (SARS-CoV-2 virus): active in both CPE and viral yield reduction assays
22 | CC1=NN(c2ccc(C)c(C)c2)C(=O)/C1=N\Nc1cccc(-c2cccc(C(=O)O)c2)c1O [eltrombopag olamine] | – | – | – | – | – | 68.67 | SARS-CoV-2 CPE efficacy ([1]; Table 2 quenching compounds): 74.39%
23 | O=C1c2ccccc2-[n+]2ccc3c([nH]c4ccccc43)c21 [fascaplysin] | 99.28 | – | 0 | – | 63.44 | – | –
24 | Oc1c(Cl)cc(Cl)c(Cl)c1Cc1c(O)c(Cl)cc(Cl)c1Cl [hexachlorophene] | – | – | – | – | – | 63.02 | –
25 | C/C1=C2/[N-][C@H]([C@H](CC(N)=O)[C@@]2(C)CCC(=O)NC[C@@H](C)OP(=O)([O-])O[C@H]2[C@@H](O)[C@@H](n3cnc4cc(C)c(C)cc43)O[C@@H]2CO)[C@]2(C)N=C(/C(C)=C3N=C(/C=C4N=C1[C@@H](CCC(N)=O)C\4(C)C)[C@@H](CCC(N)=O)[C@]\3(C)CC(N)=O)[C@@H](CCC(N)=O)[C@]2(C)CC(N)=O.[Co+3].[OH-] [hydroxocobalamin] | 0 | > 20 | 0 | > 20 | 89.56 | – | cytotoxicity to Vero E6 cells (Vero E6 cells): nor cytotoxic to Vero E6 cells; activity in CPE assay [1]: neither effective in CPE assay
26 | CN[C@H](CC(C)C)C(=O)N[C@H]1C(=O)N[C@@H](CC(N)=O)C(=O)N[C@H]2C(=O)N[C@H]3C(=O)N[C@H](C(=O)N[C@H](C(=O)O)c4cc(O)cc(O)c4-c4cc3ccc4O)[C@H](O[C@H]3C[C@](C)(N)[C@@H](O)[C@H](C)O3)c3ccc(c(Cl)c3)Oc3cc2cc(c3O[C@@H]2O[C@H](CO)[C@@H](O)[C@H](O)[C@H]2O[C@H]2C[C@](C)(NCc3ccc(-c4ccc(Cl)cc4)cc3)[C@@H](O)[C@H](C)O2)Oc2ccc(cc2Cl)[C@H]1O.O=P(O)(O)O.O=P(O)(O)O [oritavancin (diphosphate)] | 23.51 | 14.1 | 0 | > 20 | 93.29 | – | –
27 | O.O=C(OC[C@H]1O[C@@H](OC(=O)c2cc(O)c(O)c(O)c2)[C@H](OC(=O)c2cc(O)c(O)c(O)c2)[C@@H](OC(=O)c2cc(O)c(O)c(O)c2)[C@@H]1OC(=O)c1cc(O)c(O)c(O)c1)c1cc(O)c(O)c(O)c1 [penta-O-galloyl-β-D-glucose hydrate] | 80.28 | 11.2 | – | – | 109.94 | – | –
28 | COCCn1c2c([n+](Cc3cnccn3)c1C)C(=O)c1ccccc1C2=O [sepantronium bromide] | 20.12 | – | 0 | – | 61.79 | – | –
29 | Cc1ccc(C(=O)Nc2ccc(S(=O)(=O)O)c3cc(S(=O)(=O)O)cc(S(=O)(=O)O)c23)cc1NC(=O)c1cccc(NC(=O)Nc2cccc(C(=O)Nc3cc(C(=O)Nc4ccc(S(=O)(=O)O)c5cc(S(=O)(=O)O)cc(S(=O)(=O)O)c45)ccc3C)c2)c1 [suramin sodium] | 0 | – | 0 | – | 99.49 | – | cytotoxicity to Vero E6 cells (Vero E6 cells; African green monkey): nor cytotoxic to Vero E6 cells; activity in CPE assay [1]: neither effective in CPE assay
30 | vitamin B12 | 0 | > 20 | 0 | > 20 | – | – | 3CL^pro inhibition max resp (SARS-CoV-2 3CL^pro): 71.06%
